Experimental data: patent US20240299568A1, “BONE-SPECIFIC DELIVERY OF POLYPEPTIDES” (William Marsh Rice University, priority 2021, published 2024)

Tested on: MDA-MB-361 cells
Assay: MDA-MB-361 bone micrometastasis xenograft (IIA injection)
[1] = significance vs PBS group, end of experiment

For `NCCCC(O)(P(=O)(O)O)P(=O)(O)O` [ALN, Alendronate], the “bone mass loss of femurs (microCT)” value (82 days after tumor implantation) was “significant losses of bone mass”, the “development of micrometastases / lesions (BLI imaging)” value (ALN 10 μg/kg, Tras, Tras-ALN 1 mg/kg, retro-orbital twice a week) was “accumulated rapidly” and the “tumor burden, histomorphometric analysis of tibiae and femurs” value (H&E bone sections) was “high tumor burdens”. The “BLI Fold-increase” value (significance vs PBS group, BLI of day 87/BLI of day 6, two-way ANOVA) was “NS (NS represents P > 0.05)”, the “Osteoclast activity Osteoclast number” value (significance vs PBS group, TRAP-stained tibia/femur sections, end of experiment) was “* (* P < 0.05)” and the “Osteoclast activity Serum Calcium” value [1] was “NS (NS represents P > 0.05)”. The “Osteoclast activity Serum TRACP 5b” value [1] was “NS (NS represents P > 0.05)”, the Survival (significance vs PBS group, endpoint BLI intensity over 10^7, log-rank test) was “NS (NS represents P > 0.05)” and the “BLI Progression” value (significance vs PBS group, whole-body BLI over the course of the experiment, two-way ANOVA) was “NS (NS represents P > 0.05)”.
